ChEMBL document CHEMBL1136562, “Structure-activity relationships of substituted benzothiophene-anthranilamide factor Xa inhibitors” (Bioorg Med Chem Lett, 2003)

Tests used:
[1] = molecular target: Cationic trypsin (Bos taurus); experiment: Inhibition constant against bovine trypsin
[2] = molecular target: Prothrombin (Homo sapiens, UniProt P00734); experiment: Inhibition constant against human thrombin; settings: read-out: Ki app
[3] = molecular target: Coagulation factor X (Homo sapiens, UniProt P00742); experiment: Inhibition constant against human factor Xa; settings: read-out: Ki app
Coagulation factor X, sequence (P00742 41-179 limits assumed): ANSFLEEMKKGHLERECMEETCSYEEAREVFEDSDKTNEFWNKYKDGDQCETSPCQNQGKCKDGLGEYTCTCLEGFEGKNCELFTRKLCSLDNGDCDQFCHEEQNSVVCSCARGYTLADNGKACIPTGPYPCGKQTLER
Coagulation factor X, sequence (P00742 235-488 limits assumed): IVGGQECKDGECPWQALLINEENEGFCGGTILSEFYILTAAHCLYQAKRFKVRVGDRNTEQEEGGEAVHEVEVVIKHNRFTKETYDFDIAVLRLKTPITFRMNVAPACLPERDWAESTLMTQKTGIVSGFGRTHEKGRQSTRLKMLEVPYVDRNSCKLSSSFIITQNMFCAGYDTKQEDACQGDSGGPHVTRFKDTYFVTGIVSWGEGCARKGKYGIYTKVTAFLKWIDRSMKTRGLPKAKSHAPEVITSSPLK

| SMILES | Ki app [1] | Ki [2] | Ki [3] |
| --- | --- | --- | --- |
| Cc1cccc(C(=O)Nc2ccc(Cl)cc2)c1NC(=O)c1sc2ccccc2c1Cl | > 5 µM | > 5 µM | 0.058 µM |
| Cc1ccc(NC(=O)c2sc3ccccc3c2Cl)c(C(=O)Nc2ccccc2)c1 | > 5 µM | > 5 µM | 0.019 µM |
| Cc1ccc(NC(=O)c2ccc3ccccc3c2)c(C(=O)Nc2ccc(Cl)cc2)c1 | > 5 µM | > 5 µM | 0.078 µM |
| O=C(Nc1cccc(F)c1C(=O)Nc1ccc(Cl)cc1)c1sc2ccccc2c1Cl | > 5 µM | > 5 µM | 0.026 µM |
| CCOc1ccc(NC(=O)c2cc(C)ccc2NC(=O)c2sc3ccccc3c2Cl)cc1 | > 5 µM | > 5 µM | > 5 µM |
| Cc1cccc(NC(=O)c2sc3ccccc3c2Cl)c1C(=O)Nc1ccc(Cl)cc1 | > 5 µM | > 5 µM | > 5 µM |
| CN1CCN(c2ccc(NC(=O)c3sc4ccccc4c3Cl)c(C(=O)Nc3ccc(Cl)cc3)c2)CC1 | > 5 µM | > 5 µM | 0.47 µM |
| Cc1ccc(NC(=O)c2scc(S(C)(=O)=O)c2Cl)c(C(=O)Nc2ccc(Cl)cc2)c1 | > 5 µM | > 5 µM | 0.014 µM |
| Cc1ccc(NC(=O)c2sc3ccccc3c2Cl)c(C(=O)Nc2ccc(F)cc2)c1 |  | > 5 µM |  |
| COc1ccc(NC(=O)c2cc(C)ccc2NC(=O)c2sc3ccccc3c2Cl)cc1 | > 5 µM | > 5 µM | 0.016 µM |
| Cc1ccc(NC(=O)c2sc3ccccc3c2Cl)c(C(=O)Nc2ccccc2Cl)c1 |  | > 5 µM | > 5 µM |
| Cc1ccc(NC(=O)c2sc3ccccc3c2Cl)c(C(=O)Nc2ccc(Cl)cc2)c1 |  | > 5 µM |  |

Further lines, results first:

| Ki app [1] | Ki [2] | Ki [3] | SMILES |
| --- | --- | --- | --- |
| > 5 µM | > 5 µM | 0.0059 µM | COc1c(C(=O)Nc2ccc(C)cc2C(=O)Nc2ccc(Cl)cc2)sc2ccccc12 |
|  | > 5 µM | 0.015 µM | O=C(Nc1ccc(Cl)cc1)c1ccc(F)cc1NC(=O)c1sc2ccccc2c1Cl |
|  | > 5 µM | 0.13 µM | Cc1ccc(NC(=O)c2sccc2Cl)c(C(=O)Nc2ccc(Cl)cc2)c1 |
| > 5 µM | > 5 µM | 0.007 µM | O=C(Nc1ccc(Cl)cc1)c1ccccc1NC(=O)c1sc2ccccc2c1Cl |
| > 5 µM | > 5 µM | 4.7 µM | Cc1ccc(NC(=O)c2sc3ccccc3c2Cl)c(C(=O)Nc2ccc(C(=O)O)cc2)c1 |
| > 5 µM | > 5 µM | 0.26 µM | Cc1ccc(NC(=O)c2sc3ccccc3c2Cl)c(C(=O)Nc2cccc(Cl)c2)c1 |
| > 5 µM | > 5 µM | 0.21 µM | Cc1ccc(NC(=O)c2sc3ccccc3c2Cl)c(C(=O)Nc2cccnc2)c1 |
| > 5 µM | > 5 µM | 0.024 µM | O=C(Nc1ccc(Cl)cc1)c1cccc(Cl)c1NC(=O)c1sc2ccccc2c1Cl |
| > 5 µM | > 5 µM | > 5 µM | O=C(Nc1ccc(Cl)cc1)c1cc(N2CCCC2)ccc1NC(=O)c1sc2ccccc2c1Cl |
| > 5 µM | > 5 µM | > 5 µM | Cc1ccc(NC(=O)c2sc3ccccc3c2Cl)c(C(=O)Nc2nccs2)c1 |
|  | > 5 µM | 0.59 µM | Cc1ccc(NC(=O)c2cc3ccccc3s2)c(C(=O)Nc2ccc(F)cc2)c1 |
| > 5 µM | > 5 µM | 0.016 µM | Nc1ccc(NC(=O)c2sc3ccccc3c2Cl)c(C(=O)Nc2ccc(Cl)cc2)c1 |
| > 5 µM | > 5 µM | > 5 µM | Cc1ccc(NC(=O)c2cccnc2C)c(C(=O)Nc2ccc(Cl)cc2)c1 |
| > 5 µM | > 5 µM | 0.96 µM | Cc1ccc(NC(=O)c2ccccc2Br)c(C(=O)Nc2ccc(Cl)cc2)c1 |
|  | > 5 µM | 0.0018 µM | Cc1cc(Cl)cc(C(=O)Nc2ccc(Cl)cc2)c1NC(=O)c1sc2ccccc2c1Cl |
| > 5 µM | > 5 µM | > 5 µM | COc1ccc(COc2ccc(NC(=O)c3sc4ccccc4c3Cl)c(C(=O)Nc3ccc(Cl)cc3)c2)cc1 |
|  | > 5 µM | 0.0037 µM | O=C(Nc1ccc(Cl)cc1)c1cc(Cl)cc(O)c1NC(=O)c1sc2ccccc2c1Cl |
|  | > 5 µM | 0.022 µM | COc1cccc(C(=O)Nc2ccc(Cl)cc2)c1NC(=O)c1sc2ccccc2c1Cl |
